Source: PMC6749325, “Hybrids of Cinchona Alkaloids and Bile Acids as Antiparasitic Agents Against Trypanosoma cruzi” (Molecules, 2019)
Converted amounts (≈) assume the structure as drawn.

Assays:
[1] = test system: T. cruzi RA (DTU VI) trypomastigotes; assay: Trypomastigote IC50 estimation, RA strain; assay type: cell-based, Trypanosoma cruzi; conditions: 24 h incubation; for IC50: Trypanosoma cruzi, 24 h
Description: (§1) The NRK and Vero cell lines were routinely maintained in DMEM (Gibco) supplemented with 10% SFB (Natocor) and Penicillin/Streptomicin (100 Units/0.1mg/mL, Sigma) at 37 °C and 5% CO2 atmosphere. The trypomatigotes of T. cruzi strains CL Brener, Y, and RA were routinely maintained in Vero cells cultured in DMEM supplemented with 4% SFB and Penicillin/Streptomicin. The trypomastigotes of each strain were purified from infected Vero cells supernatants and used in the different assays.
(§2) 2 × 10^6/mL trypomastigotes were incubated with different concentrations of the hybrids, control drug or vehicle, by triplicate at 37 °C and 5% CO2 for 24 h. Next, trypomastigotes were counted in a Neubauer chamber. The IC50 ± SD (n = 3) were estimated using the “Dose–Response” module in Graphpad Prism.

[2] = test system: T. cruzi Y (DTU II) trypomastigotes; assay: Trypomastigote IC50 estimation, Y strain; assay type: cell-based, Trypanosoma cruzi; conditions: 24 h incubation; for IC50: Trypanosoma cruzi, 24 h
Description: as §1, §2

[3] = test system: T. cruzi CL Brener trypomastigotes; assay: Trypomastigote IC50 estimation, CL Brener strain; assay type: cell-based, Trypanosoma cruzi; conditions: for IC50: Trypanosoma cruzi, 24 h; for IC50 / T. cruzi CL Brener IC50: trypomastigotes, 24 h incubation, IC50 ± SD (n = 3); for Selectivity NRK/T. cruzi (SI): IC50NRK/IC50 parasite, CL Brener trypomastigotes
Description: as §1, §2

NRK cells = assay: NRK cell IC50 estimation (cytotoxicity, crystal violet); assay type: cell-based; conditions: 48 h incubation; for IC50: Rattus norvegicus, NRK, 48 h
Description: as §1
1 × 10^5/mL NRK cells were grown overnight in a 96 multi-well plate. The culture medium was replaced by a culture medium containing increasing concentrations of hybrids, control drugs or vehicles, and cells incubated at 37 °C and 5% CO2 for 48 h. Next, cells were washed, fixed for 10 min with cold methanol (Sintorgan), and stained with violet crystal (Sigma 0.5% in methanol). After an exhaustive wash, cells were dried overnight. 10% acetic acid (Biopack) was added to each well, and the absorbance measured at 600 nm. Similarly, a standard curve was prepared (absorbance vs. increasing concentrations of NRK cells) to estimate the NRK IC50 using Graphpad Prism.

T. brucei = test system: T. brucei; parameters: method as in PMID 23816880; conditions: compared with the commercial drug suramin; cited from earlier work
[4] = test system: trypomastigotes of the Y strain released from infected NRK cells; assay: Trypomastigote release assay; assay type: cell-based, Trypanosoma cruzi; conditions: 72 hours of treatment then drug-free medium, vs non-treated control
Description: To fully eliminate the intracellular parasite, a trypanocidal drug action is ideally desired. For trypanostatic drugs, a longer chemotherapy is required to allow the elimination of the intracellular parasite, since the anti-parasitic effect could be reversed upon removal of the drug. In order to characterize the antiparasitic features of the hybrids, our strategy was to remove the hybrids from the medium of infected NRK cells and let the infection develop. In this approach, after the two hour infection of NRK cells with trypomastigotes of the Y strain, compounds were added and left for 72 hours before being replaced with fresh medium without drugs. Six days post infection, the trypomastigotes released to the supernatant were quantified. […]
NRK cells were cultured and treated as described in Section 4.1. […] At day 6 pi, the released trypomastigotes in the supernatant of infected were counted using a Neubauer chamber.
In all cases, 3 independent experiments were done by triplicate. […] The mean ± SD of amastigotes/100 cells or trypomastigote released were calculated and analyzed with one-way ANOVA with Dunnett posttest performed with Graphpad Prism software.

[5] = test system: intracellular amastigotes of the Y strain; assay: Amastigote count in infected NRK cells; assay type: cell-based, Trypanosoma cruzi; conditions: hybrid at trypomastigote IC50 for the Y strain, 48 h, compared to untreated infected cells
Description: Not only the genetic diversity among strains should be taken into account while searching for new drugs. Differential susceptibility of the different life cycle stages of the parasite within the same strain [18] should be also considered. In this regard, Bz and Nf effectiveness against axenic epimastigotes and the intracellular stages of T. cruzi have been already reported. […] More importantly, given that in the chronic phase of Chagas disease, current chemotherapy is not efficient and that parasitemia is usually low, performing new drug screenings on the intracellular replicative stage of the parasite appears to be the better approach. To confirm their anti-parasitic activity, nine of the hybrids were evaluated against intracellular amastigotes of the Y strain at the IC50 found for trypomastigotes of the same strain. Briefly, trypomastigotes were incubated with NRK cells and left to infect for two hours. […] Forty-eight hours post infection, cells were fixed and stained, and amastigotes/100 cells were calculated.
Infections were performed as previously described. […] After 48 h of incubation, cells were fixed with 4% formalin, stained with DAPI and photographed in a fluorescence microscope (Olympus). The amastigotes/100 cells were determined counting 1000 cells from each well (3000 cells/compound) using the ImageJ cell counter plugin. […]

SMILES | IC50 [1] [µg/mL] | IC50 [2] [µg/mL] | IC50 [3] [µg/mL] | NRK Cells IC50 (NRK cells) [µg/mL] | Selectivity NRK/T. cruzi (SI) [3] | T. cruzi CL Brener IC50 [3] [µg/mL] | IC50 (NRK cells) [µg/mL] | trypanocidal activity against T. brucei, IC50 (T. brucei) | T. cruzi RA (DTU VI) IC50 [1] [µg/mL] | T. cruzi Y (DTU II) IC50 [2] [µg/mL] | Trypomastigote count in the supernatant of infected cells at day six post infection [4] | Effect on intracellular amastigotes (amastigotes/100 cells) [5]
O=C(Cn1ccnc1[N+](=O)[O-])NCc1ccccc1 [Bz, benznidazole, reference compound] | 2.5 ± 0.32 (≈ 9.61 µM) | ≥ 15 | 2.5 ± 0.01 (≈ 9.61 µM) | – | – | – | – | – | – | – | – | –
C=CC1CN2CCC1CC2C(O)c1cc(CCC(C)C2CCC3C4CCC5CC(OC(C)=O)CCC5(C)C4CCC23C)nc2ccc(OC)cc12 (stereo not drawn) [Hybrid 4a] | – | – | – | 1.41 ± 0.13 | 2.20 | 0.64 ± 0.15 | – | – | – | – | – | –
C=CC1CN2CCC1CC2C(O)c1cc(CCC(C)C2CCC3C4C(OC(C)=O)CC5CC(OC(C)=O)CCC5(C)C4CCC23C)nc2ccc(OC)cc12 (stereo not drawn) [Hybrid 4b] | – | – | 0.8 ± 0.13 (≈ 1.06 µM) | – | 4.89 | – | 3.91 ± 0.29 (≈ 5.18 µM) | – | – | – | – | –
C=CC1CN2CCC1CC2C(O)c1cc(CCC(C)C2CCC3C4CCC5CC(OC(C)=O)CCC5(C)C4CCC23C)nc2ccc(OC)cc12 (stereo not drawn) [Hybrid 4c] | – | ≥ 1 | 1.08 ± 0.23 (≈ 1.55 µM) | 16.53 ± 0.18 | 15.30 | – | – | – | – | – | – | –
C=CC1CN2CCC1CC2C(O)c1cc(CCC(C)C2CCC3C4C(OC(C)=O)CC5CC(OC(C)=O)CCC5(C)C4CCC23C)nc2ccc(OC)cc12 (stereo not drawn) [Hybrid 4d] | – | – | – | 3.30 ± 0.08 | 4.58 | 0.72 ± 0.07 | – | in the same range as the commercial drug suramin | – | – | – | –
C=CC1CN2CCC1CC2C(O)c1cc(CCC(C)C2CCC3C4CCC5CC(OC(C)=O)CCC5(C)C4CCC23C)nc2ccccc12 (stereo not drawn) [Hybrid 4e] | – | – | 1.16 ± 0.15 (≈ 1.74 µM) | – | 6.46 | – | 7.5 ± 0.29 (≈ 11.2 µM) | – | – | – | – | –
C=CC1CN2CCC1CC2C(O)c1cc(CCC(C)C2CCC3C4C(OC(C)=O)CC5CC(OC(C)=O)CCC5(C)C4CCC23C)nc2ccccc12 (stereo not drawn) [Hybrid 4f] | – | – | 0.51 ± 0.06 (≈ 0.703 µM) | – | 13.04 | – | 6.69 ± 1.51 (≈ 9.23 µM) | in the same range as the commercial drug suramin | 0.25 ± 0.10 | 0.50 ± 0.03 | significantly lower than non-treated control | significant reduction in intracellular amastigotes
C=CC1CN2CCC1CC2C(O)c1cc(CCC(C)C2CCC3C4CCC5CC(OC(C)=O)CCC5(C)C4CCC23C)nc2ccccc12 (stereo not drawn) [Hybrid 4g] | 1.1 ± 0.21 (≈ 1.65 µM) | 3.05 ± 0.71 (≈ 4.57 µM) | – | 12.30 ± 0.81 | 9.46 | 1.30 ± 0.01 | – | – | – | – | – | –
C=CC1CN2CCC1CC2C(O)c1cc(CCC(C)C2CCC3C4C(OC(C)=O)CC5CC(OC(C)=O)CCC5(C)C4CCC23C)nc2ccccc12 (stereo not drawn) [Hybrid 4h] | – | – | – | 6.50 ± 0.28 | 9.28 | 0.70 ± 0.18 | – | in the same range as the commercial drug suramin | 1.50 ± 0.50 | ≥2.00 | – | –
C=CC1CN2CCC1CC2C(O)c1cc(CCC(C)C2CCC3C4CCC5CC(O)CCC5(C)C4CCC23C)nc2ccc(OC)cc12 (stereo not drawn) [Hybrid 5a] | – | – | – | 15.30 ± 4.04 | 4.12 | 3.71 ± 0.13 | – | – | – | – | – | –
C=CC1CN2CCC1CC2C(O)c1cc(CCC(C)C2CCC3C4C(O)CC5CC(O)CCC5(C)C4CCC23C)nc2ccc(OC)cc12 (stereo not drawn) [Hybrid 5b] | – | – | – | 5.10 ± 0.76 | 5.67 | 0.90 ± 0.10 | – | in the same range as the commercial drug suramin | – | – | – | –
C=CC1CN2CCC1CC2C(O)c1cc(CCC(C)C2CCC3C4CCC5CC(O)CCC5(C)C4CCC23C)nc2ccc(OC)cc12 (stereo not drawn) [Hybrid 5c] | 0.79 ± 0.19 (≈ 1.21 µM) | ≥ 2 | – | – | – | 0.78 ± 0.11 | > 11 | – | – | – | – | –
C=CC1CN2CCC1CC2C(O)c1cc(CCC(C)C2CCC3C4C(O)CC5CC(O)CCC5(C)C4CCC23C)nc2ccc(OC)cc12 (stereo not drawn) [Hybrid 5d] | – | – | – | 1.59 ± 0.54 | 3.98 | 0.40 ± 0.05 | – | in the same range as the commercial drug suramin | – | – | – | –
C=CC1CN2CCC1CC2C(O)c1cc(CCC(C)C2CCC3C4CCC5CC(O)CCC5(C)C4CCC23C)nc2ccccc12 (stereo not drawn) [Hybrid 5e] | – | – | 3.96 ± 2.69 (≈ 6.34 µM) | – | – | – | > 30 | – | – | – | – | –
C=CC1CN2CCC1CC2C(O)c1cc(CCC(C)C2CCC3C4C(O)CC5CC(O)CCC5(C)C4CCC23C)nc2ccccc12 (stereo not drawn) [Hybrid 5f] | 0.31 ± 0.1 (≈ 0.484 µM) | 0.65 ± 0.07 (≈ 1.01 µM) | 0.34 ± 0.03 (≈ 0.53 µM) | 4.02 ± 0.55 | – | – | – | in the same range as the commercial drug suramin | – | – | significantly lower than non-treated control | significant reduction in intracellular amastigotes
C=CC1CN2CCC1CC2C(O)c1cc(CCC(C)C2CCC3C4CCC5CC(O)CCC5(C)C4CCC23C)nc2ccccc12 (stereo not drawn) [Hybrid 5g] | 3.03 ± 0.24 (≈ 4.85 µM) | 3.25 ± 0.67 (≈ 5.2 µM) | – | 27.11 ± 4.54 | 10.58 | 2.56 ± 0.58 | – | – | – | – | – | –
C=CC1CN2CCC1CC2C(O)c1cc(CCC(C)C2CCC3C4C(O)CC5CC(O)CCC5(C)C4CCC23C)nc2ccccc12 (stereo not drawn) [Hybrid 5h] | – | – | – | 0.67 ± 0.05 | 2.23 | 0.30 ± 0.00 | – | in the same range as the commercial drug suramin | – | – | – | –
